Results reported in US8962609B2, “Pyrimidine compounds as inhibitors of protein kinases IKK epsilon and/or TBK-1, processes for their preparation, and pharmaceutical compositions containing them” (Domainex Limited, priority 2010, dated 2015).
Where two headings read alike, the source gives them in different places.

Experiments:
[1] = target: TBK-1 (Homo sapiens (Human), UniProt Q9UHD2); assay: biochemical
Method: (§1) Compounds of the invention (synthesised as described below) were tested for activity against the IKKε and TBK-1 enzyme as follows:
(§2) Inhibitions studies were performed using a time-resolved fluorescence-based Lanthascreen™ assay. Phosphorylation of a fluorescein-labelled substrate peptide is measured using terbium-labeled phosphospecific antibodies. Terbium is excited at 340 nm and the FRET energy transfer to fluorescein is measured at 495 and 520 nm. The emission ratio between 520 and 495 is a measure of the level of phosphorylation of the substrate by the kinase.
(§3) Kinase inhibition assays (10 μL) were performed at 20° C. in 384-well plate format. Compound IC50 values were determined at the apparent Km for ATP (20 μM) based on a radiometric assay (Invitrogen) using 8 or 10 point curves in duplicate. The final reaction conditions contained 400 nM fluorescein-IkBα substrate ([…]), 20 μM ATP, 2 nM or 8 nM IKKε or TBK1 kinase respectively, and 3% DMSO in kinase assay buffer consisting of 50 mM HEPES (pH 7.5), 10 mM MgCl, 1 mM EGTA, 0.01% Brij-35.
(§4) Compound dilutions were prepared from 10 mM DMSO stocks by dilution into DMSO.
(§5) The kinase phosphorylation assay was initiated by the addition of the kinase and the reaction was allowed to proceed for 1 hr or 2.5 hr for IKKε and TBK-1 kinase respectively. […] The reaction was stopped by the addition of 10 mM EDTA, and phosphorylation was detected after a 1 hr incubation with 1.5 nM terbium-labelled antibody against phosphorylation at Serine 32 on the IkBα[…]peptide, both in TR-FRET dilution buffer (Invitrogen).
(§6) In the data presented for IKKε, <9 μM means having an activity in the range from 300 nM≦9 μM; and <300 nM means having an activity in the range 30 nM≦300 nM; and for the data presented for TBK-1, <3 μM means having an activity in the range 300 nM≦3 μM, and <300 nM means having an activity in the range 30 nM≦300 nM.

[2] = target: IKKβ (Homo sapiens (Human), UniProt O14920); assay: IKKβ radiolabelled P33 ATP assay (Kinase Hotspot Technology); format: biochemical; conditions: for inhibition at 1 µM: read-out: IKK-β percentage inhibition (in brackets); for IC50: single point, read-out: Concentration of compounds required for ~ 50% inhibition, IKK-β
Chain of IKKβ (O14920 whole entry): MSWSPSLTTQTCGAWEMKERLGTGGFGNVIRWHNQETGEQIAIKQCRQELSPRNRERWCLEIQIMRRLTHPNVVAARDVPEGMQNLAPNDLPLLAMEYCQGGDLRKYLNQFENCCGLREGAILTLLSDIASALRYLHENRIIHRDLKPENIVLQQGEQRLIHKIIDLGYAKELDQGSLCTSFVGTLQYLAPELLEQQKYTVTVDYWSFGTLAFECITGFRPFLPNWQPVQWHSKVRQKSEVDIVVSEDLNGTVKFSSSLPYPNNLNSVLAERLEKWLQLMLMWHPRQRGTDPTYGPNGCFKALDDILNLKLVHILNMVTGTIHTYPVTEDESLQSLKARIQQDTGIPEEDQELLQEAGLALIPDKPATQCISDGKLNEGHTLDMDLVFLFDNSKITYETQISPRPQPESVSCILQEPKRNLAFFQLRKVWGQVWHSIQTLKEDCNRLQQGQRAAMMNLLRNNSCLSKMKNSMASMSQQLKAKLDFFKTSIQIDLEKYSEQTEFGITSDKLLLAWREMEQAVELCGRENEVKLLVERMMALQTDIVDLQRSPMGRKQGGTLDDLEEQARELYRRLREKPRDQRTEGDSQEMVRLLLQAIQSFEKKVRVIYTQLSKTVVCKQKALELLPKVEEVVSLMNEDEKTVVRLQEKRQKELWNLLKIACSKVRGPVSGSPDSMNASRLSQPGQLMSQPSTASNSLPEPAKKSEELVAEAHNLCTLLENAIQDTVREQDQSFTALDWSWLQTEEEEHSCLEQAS
Method: (§7) The compounds of examples DMX-1,8,9,14 and 16 were tested for activity against TBK1, IKKβ, Jnk1 and Jnk3 in addition to IKK-ε and TBK-1. TBK-1, IKKβ, Jnk1 and Jnk3 were screened using radiolabelled P^33 ATP using the Kinase Hotspot Technology of Reaction Biology Corp. Screening against Jnk-1 and Jnk-3 was carried out at the Km for ATP. IKK-ε and TBK-1 screening was also carried out as described above at the Km for ATP for these enzymes. […] TBK-1, IKKβ and Jnk1 were screened using radiolabelled P^33 ATP using the Kinase Hotspot Technology of Reaction Biology Corp. IKK-ε and TBK-1 screening was also carried out as described above at the Km for ATP for these enzymes.

[3] = target: IKKε (Homo sapiens (Human), UniProt Q14164); assay: IKKε time-resolved fluorescence Lanthascreen kinase inhibition assay; format: biochemical
Chain of IKKε (Q14164 whole entry): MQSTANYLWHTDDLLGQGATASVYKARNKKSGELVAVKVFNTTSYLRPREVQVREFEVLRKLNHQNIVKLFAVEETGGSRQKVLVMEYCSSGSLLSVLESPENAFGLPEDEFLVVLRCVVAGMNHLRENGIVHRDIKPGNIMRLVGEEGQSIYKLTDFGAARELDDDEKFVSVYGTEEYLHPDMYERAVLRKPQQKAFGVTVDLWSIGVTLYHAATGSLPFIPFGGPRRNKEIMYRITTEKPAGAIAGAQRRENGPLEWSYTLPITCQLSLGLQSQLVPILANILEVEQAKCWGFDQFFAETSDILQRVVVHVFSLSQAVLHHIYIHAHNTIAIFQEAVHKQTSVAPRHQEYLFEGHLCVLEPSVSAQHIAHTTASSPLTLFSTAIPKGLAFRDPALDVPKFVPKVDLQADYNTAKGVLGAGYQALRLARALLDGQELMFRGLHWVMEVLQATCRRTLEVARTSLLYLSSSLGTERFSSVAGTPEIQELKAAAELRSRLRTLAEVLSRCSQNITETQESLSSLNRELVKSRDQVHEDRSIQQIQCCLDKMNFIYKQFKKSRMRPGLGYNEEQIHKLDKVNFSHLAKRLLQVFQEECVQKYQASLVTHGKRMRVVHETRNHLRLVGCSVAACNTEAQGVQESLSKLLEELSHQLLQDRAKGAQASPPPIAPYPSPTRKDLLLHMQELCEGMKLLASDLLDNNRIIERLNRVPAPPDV
Method: as §1, §2, §3, §4, §5, §6

[4] = target: Jnk1 (Homo sapiens (Human), UniProt P45983); assay: Jnk1 radiolabelled P33 ATP assay (Kinase Hotspot Technology); format: biochemical; conditions: for IC50: read-out: Concentration of compounds required for ~ 50% inhibition, Jnk-1; for inhibition at 1 µM: single point at the concentration (1000 nM), read-out: Jnk-1 percentage inhibition (in brackets)
Chain of Jnk1 (P45983 whole entry): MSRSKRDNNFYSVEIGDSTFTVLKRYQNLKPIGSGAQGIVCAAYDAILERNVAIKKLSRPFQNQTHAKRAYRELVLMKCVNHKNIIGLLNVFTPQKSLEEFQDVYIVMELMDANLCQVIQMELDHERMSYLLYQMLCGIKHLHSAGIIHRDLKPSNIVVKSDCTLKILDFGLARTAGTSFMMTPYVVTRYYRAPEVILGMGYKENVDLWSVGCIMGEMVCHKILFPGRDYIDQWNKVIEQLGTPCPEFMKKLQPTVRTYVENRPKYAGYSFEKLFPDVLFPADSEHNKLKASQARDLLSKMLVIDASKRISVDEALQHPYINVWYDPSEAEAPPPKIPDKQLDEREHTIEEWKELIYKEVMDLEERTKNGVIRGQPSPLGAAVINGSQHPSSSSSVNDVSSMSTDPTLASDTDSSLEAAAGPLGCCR
Method: as §7

[5] = target: Jnk3 (Homo sapiens (Human), UniProt P53779); assay: Jnk3 radiolabelled P33 ATP assay (Kinase Hotspot Technology); format: biochemical; conditions: for IC50: at the Km for ATP, read-out: Concentration of compounds required for ~ 50% inhibition, Jnk-3
Chain of Jnk3 (P53779 whole entry): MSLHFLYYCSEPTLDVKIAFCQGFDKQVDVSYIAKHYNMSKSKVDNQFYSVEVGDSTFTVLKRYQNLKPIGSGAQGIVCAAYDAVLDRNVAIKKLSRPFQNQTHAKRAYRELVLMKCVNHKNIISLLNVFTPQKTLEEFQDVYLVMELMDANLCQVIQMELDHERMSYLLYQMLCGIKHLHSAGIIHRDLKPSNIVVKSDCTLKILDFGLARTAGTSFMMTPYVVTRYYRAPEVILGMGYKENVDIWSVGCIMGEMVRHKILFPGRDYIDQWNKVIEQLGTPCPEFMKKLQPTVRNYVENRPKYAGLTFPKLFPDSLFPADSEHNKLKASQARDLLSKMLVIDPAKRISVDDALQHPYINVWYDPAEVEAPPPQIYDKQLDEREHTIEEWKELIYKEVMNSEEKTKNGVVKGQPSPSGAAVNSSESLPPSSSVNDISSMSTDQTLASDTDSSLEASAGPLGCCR
Method: as §7

[6] = 20 μM ATP (apparent Km), 8 nM kinase, 2.5 hr, values are activity bands, read-out: Inhibition of TBK-1 IC50
[7] = at the Km for ATP, read-out: Concentration of compounds required for ~ 50% inhibition, TBK-1
[8] = single point at the concentration (1000 nM), 1 μM ATP
[9] = 20 μM ATP (apparent Km), 2 nM kinase, 1 hr, values are activity bands, read-out: Inhibition of IKKε IC50
[10] = at the Km for ATP, read-out: Concentration of compounds required for ~ 50% inhibition, IKK-ε
[11] = single point at the concentration (1000 nM), 10 μM ATP

Chain of TBK-1 (Q9UHD2 whole entry): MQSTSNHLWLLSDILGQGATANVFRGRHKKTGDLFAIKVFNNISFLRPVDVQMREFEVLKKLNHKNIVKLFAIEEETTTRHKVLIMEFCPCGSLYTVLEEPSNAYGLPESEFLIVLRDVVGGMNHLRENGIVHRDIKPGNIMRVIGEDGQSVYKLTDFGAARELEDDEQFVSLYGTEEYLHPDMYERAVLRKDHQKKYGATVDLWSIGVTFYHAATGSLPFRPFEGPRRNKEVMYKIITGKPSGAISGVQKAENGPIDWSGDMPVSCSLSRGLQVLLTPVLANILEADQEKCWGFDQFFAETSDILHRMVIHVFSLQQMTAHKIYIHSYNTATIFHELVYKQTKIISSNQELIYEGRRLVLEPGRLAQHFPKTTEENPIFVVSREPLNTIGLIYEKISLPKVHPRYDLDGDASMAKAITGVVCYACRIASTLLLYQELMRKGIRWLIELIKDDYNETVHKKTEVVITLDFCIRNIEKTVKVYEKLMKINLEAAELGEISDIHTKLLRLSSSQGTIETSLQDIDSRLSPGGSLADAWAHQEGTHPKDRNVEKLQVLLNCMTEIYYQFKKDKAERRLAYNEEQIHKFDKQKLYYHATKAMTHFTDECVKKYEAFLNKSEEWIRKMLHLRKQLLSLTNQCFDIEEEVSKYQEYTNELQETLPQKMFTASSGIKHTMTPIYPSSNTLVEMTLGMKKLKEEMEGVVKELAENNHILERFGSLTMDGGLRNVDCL

| Compound | IC50 [1, 6] | IC50 [1, 7] | inhibition at 1 µM [2, 8] | IC50 ([2]; 1 μM ATP) | IC50 [3, 9] | IC50 [3, 10] | IC50 ([4]; at the Km for ATP) | IC50 [5] | inhibition at 10 µM ([5]; at the printed concentration (10000 nM), Km for ATP, read-out: Jnk-3 percentage inhibition (in brackets)) | inhibition at 1 µM [2, 11] | IC50 ([2]; 10 μM ATP) | inhibition at 1 µM ([4]; 10 μM ATP) | IC50 ([4]; single point, 10 μM ATP) | inhibition at 1 µM [2] |
| --- | --- | --- | --- | --- | --- | --- | --- | --- | --- | --- | --- | --- | --- | --- |
| CC(=O)Nc1ccc(Nc2nccc(-c3ccc(N4CCCC4)c(C#N)c3)n2)cc1 [DMX-9] | < 30 nM | 3 nM | 34% | 1000 nM | < 30 nM | 3 nM | 262 nM | 10000 nM | 51% | – | – | – | – | – |
| Cn1cc(Nc2nccc(-c3ccc(N4CCCC4)c(C#N)c3)n2)cn1 [DMX-56] | < 30 nM | 3 nM | – | – | < 30 nM | 8 nM | – | – | – | 56% | 1000 nM | 21% | > 1000 nM | – |
| N#Cc1cc(-c2ccnc(Nc3ccc(C(N)=O)cc3)n2)ccc1N1CCCC1 [DMX-8] | < 30 nM | 3 nM | 50% | 1000 nM | < 30 nM | 3 nM | 354 nM | > 10000 nM | – | – | – | – | – | – |
| N#Cc1cc(-c2ccnc(Nc3ccc(N4CCOCC4)nc3)n2)ccc1N1CCCC1 [DMX-16] | < 30 nM | 1 nM | 43% | 1000 nM | < 30 nM | 2 nM | 222 nM | > 10000 nM | – | – | – | – | – | – |
| CC(=O)Nc1ccc(Nc2nccc(-c3ccc(N4CC(O)C4)c(C#N)c3)n2)cn1 [DMX-66] | < 30 nM | 24 nM | – | – | < 30 nM | 21 nM | – | – | – | 43% | 1000 nM | 52% | 1000 nM | – |
| CN(C)CC(=O)Nc1ccc(Nc2nccc(-c3ccc(N4CCCC4)c(C#N)c3)n2)cn1 [DMX-49] | < 30 nM | – | – | – | < 30 nM | – | – | – | – | – | – | – | – | – |
| CN(C)CCNc1ccc(Nc2nccc(-c3ccc(N4CC[C@H](F)C4)c(C#N)c3)n2)cn1 [DMX-69] | < 30 nM | 4 nM | – | – | < 30 nM | 4 nM | – | – | – | 54% | 1000 nM | 43% | 1000 nM | – |
| CNC(=O)C1CCN(c2ccc(-c3ccnc(Nc4ccc(NC(C)=O)nc4)n3)cc2C#N)CC1 [DMX-68] | 30 to 300 nM | – | – | – | 30 to 300 nM | – | – | – | – | – | – | – | – | – |
| Cc1cc(Nc2nccc(-c3ccc(N4CCCC4)c(C#N)c3)n2)on1 [DMX-26] | 30 to 300 nM | – | – | – | 30 to 300 nM | – | – | – | – | – | – | – | – | – |
| N#Cc1cc(-c2ccnc(Nc3cccc(C(N)=O)c3)n2)ccc1N1CCCC1 [DMX-1, 3-[4-(3-cyano-4-pyrrolidin-1-yl-phenyl)-pyrimidin-2-ylamino]-benzamide] | < 30 nM | 4 nM | – | 1000 nM | < 30 nM | 2 nM | 254 nM | > 10000 nM | – | – | – | – | – | 48% |
| N#Cc1cc(-c2ccnc(Nc3ccc4c(c3)CC(=O)N4)n2)ccc1N1CCCC1 [DMX-14] | < 30 nM | 2 nM | 45% | 1000 nM | < 30 nM | 3 nM | 201 nM | > 10000 nM | – | – | – | – | – | – |
| CN(C)CCN(C)c1ccc(Nc2nccc(-c3ccc(N4CCCC4)c(C#N)c3)n2)cn1 [DMX-34] | < 30 nM | – | – | – | < 30 nM | – | – | – | – | – | – | – | – | – |
